From US11958842B2, “Substituted phenazines and methods of treating cancer and bacterial diseases” (Adjutec Pharma AS, priority 2016, dated 2024)
Where two headings read alike, the source gives them in different places.

Experiments:
[1] = test system: human acute myeloid leukemia cell line MOLM-13; test: Cytotoxicity, WST-1 and nuclear morphology (Example 73); format: cell-based; conditions: Homo sapiens
Outline: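 MOLM-13 (RPMI/FBS), NRK and H9c2 (DMEM/10% FBS) cells under 2% or 20% O2 at 37° C were exposed to analogues for 24 h (≤1% DMSO). Viability was read by WST-1, and cell death by Hoechst 33342 nuclear morphology; EC50 came from four-parameter regression.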

[2] = Parallel artificial membrane permeability assay (PAMPA); conditions: PAMPA, 50 μM in PBS, room temperature, five hours

COc1cccc2c1[n+]([O-])c1cccc(O)c1[n+]2O [Example 5a, 1-hydroxy-6-methoxyphenazine 5.10-dioxide, reference compound]
EC50 ([1]; MOLM-13, 2% O2, 24 hours of incubation, read-out: EC50 (μM) MOLM-13 2% O2): 0.77 ± 0.13 µM
EC50 ([1]; MOLM-13, 19% O2, 24 hours of incubation, read-out: EC50 (μM) MOLM-13 19% O2): 1.4 ± 0.3 µM
LogPeff [2]: −5.29
